From patent US8648066B2 (Exelixis, Inc., priority 2009, dated 2014)

Target: mTOR/GbL/Raptor (mTORC1) (Homo sapiens, UniProt P42345)
Assay: mTOR/GbL/Raptor (mTORC1) ELISA assay
Type: biochemical
Conditions: phosphorylation of 4E-BP1; 0.2 nM mTORC1, 10 μM ATP; read-out: IC50 in this assay (mTORC1 ELISA)
Method in brief: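 Human mTORC1 (0.2 nM) phosphorylated 50 nM His-tagged 4E-BP1 with 10 µM ATP in HEPES pH 7.2 containing 10 mM MnCl2, 120 min at ambient temperature. Substrate was captured on Ni-chelate plates; phospho-4E-BP1 was detected by primary antibody and HRP secondary with luminescence.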

COC1Cc2nc(CN(C)C)nc(N3CCOc4ccc(-c5cnc6nc(C)[nH]c6c5)cc4C3)c2CC1(C)C (centres unmarked) [Example 355, 1-{6,6-dimethyl-4-[7-(2-methyl-1H-imidazo[4,5-b]pyridin-6-yl)-2,3-dihydro-1,4-benzoxazepin-4(5H)-yl]-7-(methyloxy)-5,6,7,8-tetrahydroquinazolin-2-yl}-N,N-dimethylmethanamine]
IC50: 50 to 250 nM

COc1cc2ncnc(N3CCOc4ccc(-c5ccc6nc(C)[nH]c6c5)cc4C3)c2cc1Br [Example 43, 4-[6-bromo-7-(methyloxy)quinazlolin-4-yl]-7-(2-methyl-1H-benzimidazol-6-yl)-2,3,4,5-tetrahydro-1,4-benzoxazepine]
IC50: 50 to 250 nM

CC1(C)CCc2ncnc(N3CCOc4ccc(-c5cnc(N)c(S(=O)(=O)N6CCC(N)CC6)c5)cc4C3)c2C1 [Example 446, 3-[(4-aminopiperidin-1-yl)sulfonyl]-5-[4-(6,6-dimethyl-5,6,7,8-tetrahydroquinazolin-4-yl)-2,3,4,5-tetrahydro-1,4-benzoxazepin-7-yl]pyridin-2-amine]
IC50: 10 to 50 nM

CC1(C)CCc2ncnc(N3CCOc4ccc(-c5ccc(-c6ncc[nH]6)cc5)cc4C3)c2C1 [Example 213, 4-(6,6-dimethyl-5,6,7,8-tetrahydroquinazolin-4-yl)-7-[4-(1H-imidazol-2-yl)phenyl]-2,3,4,5-tetrahydro-1,4-benzoxazepine]
IC50: ≤ 10 nM

CC1(C)CCc2ncnc(N3CCOc4ccc(-c5cnc(N)c(S(=O)(=O)NCC(O)CO)c5)cc4C3)c2C1 (centres unmarked) [Example 402, 2-amino-N-(2,3-dihydroxypropyl)-5-[4-(6,6-dimethyl-5,6,7,8-tetrahydroquinazolin-4-yl)-2,3,4,5-tetrahydro-1,4-benzoxazepin-7-yl]pyridine-3-sulfonamide]
IC50: ≤ 10 nM

COc1cc2ncnc(N3CCOc4ccc(-c5cnc6nc(N)[nH]c6c5)cc4C3)c2cc1OC [Example 180, 6-{4-[6,7-bis(methyloxy)quinazolin-4-yl]-2,3,4,5-tetrahydro-1,4-benzoxazepin-7-yl}-1H-imidazo[4,5-b]pyridin-2-amine]
IC50: 10 to 50 nM

CCNc1nc2ccc(-c3ccc4c(c3)CN(c3ccnc5ccc(OC)cc35)CCO4)cc2[nH]1 [Example 278, N-ethyl-6-{4-[6-(methyloxy)quinolin-4-yl]-2,3,4,5-tetrahydro-1,4-benzoxazepin-7-yl}-1H-benzimidazol-2-amine]
IC50: 50 to 250 nM

CNS(=O)(=O)c1cc(-c2ccc3c(c2)CN(c2ncnc4c2CC(C)(C)CC4)CCO3)cnc1N [Example 397, 2-amino-5-[4-(6,6-dimethyl-5,6,7,8-tetrahydroquinazolin-4-yl)-2,3,4,5-tetrahydro-1,4-benzoxazepin-7-yl]-N-methylpyridine-3-sulfonamide]
IC50: ≤ 10 nM

CC1(C)CCc2ncnc(N3CCOc4ccc(-c5cnc(N)c(S(=O)(=O)NCC6(N)CC6)c5)cc4C3)c2C1 [Example 418, 2-amino-N-[(1-aminocyclopropyl)methyl]-5-[4-(6,6-dimethyl-5,6,7,8-tetrahydroquinazolin-4-yl)-2,3,4,5-tetrahydro-1,4-benzoxazepin-7-yl]pyridine-3-sulfonamide]
IC50: 10 to 50 nM

Cc1nc2ncc(-c3ccc4c(c3)CN(c3ncnc5c3CCC(C)C5)CCO4)cc2[nH]1 (centres unmarked) [Example 556, 7-(2-methyl-1H-imidazo[4,5-b]pyridin-6-yl)-4-(7-methyl-5,6,7,8-tetrahydroquinazolin-4-yl)-2,3,4,5-tetrahydro-1,4-benzoxazepine]
IC50: 10 to 50 nM

Nc1nc2ncc(-c3ccc4c(c3)CN(c3ncnc5ccc(F)cc35)CCO4)cc2[nH]1 [Example 187, 6-[4-(6-fluoroquinazolin-4-yl)-2,3,4,5-tetrahydro-1,4-benzoxazepin-7-yl]-1H-imidazo[4,5-b]pyridin-2-amine]
IC50: 10 to 50 nM

CC1(C)CCc2ncnc(N3CCOc4ccc(-c5cncc(NS(C)(=O)=O)c5)cc4C3)c2C1 [Example 634, N-{5-[4-(6,6-dimethyl-5,6,7,8-tetrahydroquinazolin-4-yl)-2,3,4,5-tetrahydro-1,4-benzoxazepin-7-yl]pyridin-3-yl}methanesulfonamide]
IC50: 250 to 1000 nM

CNCc1nc2ncc(-c3ccc4c(c3)CN(c3ncnc5c3CC(C)(C)CC5)CCO4)cc2[nH]1 [Example 358, 1-{6-[4-(6,6-dimethyl-5,6,7,8-tetrahydroquinazolin-4-yl)-2,3,4,5-tetrahydro-1,4-benzoxazepin-7-yl]-1H-imidazo[4,5-b]pyridin-2-yl}-N-methylmethanamine]
IC50: 10 to 50 nM

Cc1nc2ccc(-c3ccc4c(c3)CN(c3nc(CN(C)C)nc(C)c3C)CCO4)cc2[nH]1 [Example 672, 1-{4,5-dimethyl-6-[7-(2-methyl-1H-benzimidazol-6-yl)-2,3-dihydro-1,4-benzoxazepin-4(5H)-yl]pyrimidin-2-yl}-N,N-dimethylmethanamine]
IC50: ≥ 2000 nM

CC1(C)CCc2nc(CC#N)nc(N3CCOc4ccc(-c5cnc6sc(N)nc6c5)cc4C3)c2C1 [Example 684, {4-[7-(2-amino[1,3]thiazolo[5,4-b]pyridin-6-yl)-2,3-dihydro-1,4-benzoxazepin-4(5H)-yl]-6,6-dimethyl-5,6,7,8-tetrahydroquinazolin-2-yl}acetonitrile]
IC50: ≤ 10 nM

Cc1nc2ccc(-c3ccc4c(c3)CN(c3ncnc5cc(Cl)c(I)cc35)CCO4)cc2[nH]1 [Example 35, 4-(7-chloro-6-iodoquinazolin-4-yl)-7-(2-methyl-1H-benzimidazol-6-yl)-2,3,4,5-tetrahydro-1,4-benzoxazepine]
IC50: 50 to 250 nM

C[C@H]1CCc2c(ncnc2N2CCOc3ccc(-c4cnc5nc(C6CC6)[nH]c5c4)cc3C2)C1 [Example 546, 7-(2-cyclopropyl-1H-imidazo[4,5-b]pyridin-6-yl)-4-[(7S)-7-methyl-5,6,7,8-tetrahydroquinazolin-4-yl]-2,3,4,5-tetrahydro-1,4-benzoxazepine]
IC50: 50 to 250 nM

CCc1c(C)nc(CN(C)C)nc1N1CCOc2ccc(-c3cnc4sc(N)nc4c3)cc2C1 [Example 662, 6-(4-{2-[(dimethylamino)methyl]-5-ethyl-6-methylpyrimidin-4-yl}-2,3,4,5-tetrahydro-1,4-benzoxazepin-7-yl)[1,3]thiazolo[5,4-b]pyridin-2-amine]
IC50: 50 to 250 nM

Cc1ncnc(N2CCOc3ccc(-c4ccc5sc(N)nc5c4)cc3C2)c1Cc1ccc(F)cc1 [Example 148, 5-(4-{5-[(4-fluorophenyl)methyl]-6-methylpyrimidin-4-yl}-2,3,4,5-tetrahydro-1,4-benzoxazepin-7-yl)-1,3-benzothiazol-2-amine]
IC50: ≤ 10 nM

CN(C)Cc1nc2c(c(N3CCOc4ccc(-c5ccc(-c6ncc[nH]6)cc5)cc4C3)n1)CC(C)(C)CC2 [Example 325]
IC50: ≤ 10 nM

COc1cc2nccc(N3CCOc4ccc(-c5ccc(-c6ncc[nH]6)cc5)cc4C3)c2cc1OC [Example 272, 4-[6,7-bis(methyloxy)quinolin-4-yl]-7-[4-(1H-imidazol-2-yl)phenyl]-2,3,4,5-tetrahydro-1,4-benzoxazepine]
IC50: 50 to 250 nM

CN(C)Cc1nc2c(c(N3CCOc4ccc(-c5cnc6sc(N)nc6c5)cc4C3)n1)CC(C)(C)CC2 [Example 526, 6-(4-{2-[(dimethylamino)methyl]-6,6-dimethyl-5,6,7,8-tetrahydroquinazolin-4-yl}-2,3,4,5-tetrahydro-1,4-benzoxazepin-7-yl)[1,3]thiazolo[5,4-b]pyridin-2-amine]
IC50: 10 to 50 nM

CC1(C)CCc2ncnc(N3CCOc4ccc(-c5cnc(N6CC[C@H](N)C6)c(S(=O)(=O)N6CC[C@H](N)C6)c5)cc4C3)c2C1 [Example 306, (3S)-1-({2-[(3S)-3-aminopyrrolidin-1-yl]-5-[4-(6,6-dimethyl-5,6,7,8-tetrahydroquinazolin-4-yl)-2,3,4,5-tetrahydro-1,4-benzoxazepin-7-yl]pyridin-3-yl}sulfonyl)pyrrolidin-3-amine]
IC50: 250 to 1000 nM

Cc1nc(CN(C)C)nc(N2CCOc3ccc(-c4ccc5scnc5c4)cc3C2)c1Cc1ccc(F)cc1 [Example 336, 1-{4-[7-(1,3-benzothiazol-5-yl)-2,3-dihydro-1,4-benzoxazepin-4(5H)-yl]-5-[(4-fluorophenyl)methyl]-6-methylpyrimidin-2-yl}-N,N-dimethylmethanamine]
IC50: 50 to 250 nM

Cc1nc2ccc(-c3ccc4c(c3)CN(c3ncnc5ccc(O)cc35)CCO4)cc2[nH]1 [Example 158, 4-[7-(2-methyl-1H-benzimidazol-6-yl)-2,3-dihydro-1,4-benzoxazepin-4(5H)-yl]quinazolin-6-ol]
IC50: 10 to 50 nM

COc1ccc(-c2ccc3c(c2)CN(c2nc(CN(C)C)nc4c2CC(C)(C)CC4)CCO3)cc1C(C)=O [Example 650, 1-[5-(4-{2-[(dimethylamino)methyl]-6,6-dimethyl-5,6,7,8-tetrahydroquinazolin-4-yl}-2,3,4,5-tetrahydro-1,4-benzoxazepin-7-yl)-2-(methyloxy)phenyl]ethanone]
IC50: 50 to 250 nM

CN(C)C(=O)c1cc(-c2ccc3c(c2)CN(c2ncnc4c2CC(C)(C)CC4)CCO3)cnc1N [Example 379, 2-amino-5-[4-(6,6-dimethyl-5,6,7,8-tetrahydroquinazolin-4-yl)-2,3,4,5-tetrahydro-1,4-benzoxazepin-7-yl]-N,N-dimethylpyridine-3-carboxamide]
IC50: 50 to 250 nM

Cc1nc2cc(-c3ccc4c(c3)CN(c3nc(CN5CCCC5)nc5c3CC(C)(C)CC5)CCO4)ccc2[nH]1 [Example 500, 4-[6,6-dimethyl-2-(pyrrolidin-1-ylmethyl)-5,6,7,8-tetrahydroquinazolin-4-yl]-7-(2-methyl-1H-benzimidazol-5-yl)-2,3,4,5-tetrahydro-1,4-benzoxazepine]
IC50: ≤ 10 nM

Cc1nc(N)sc1-c1ccc2c(c1)CN(c1ncnc(C)c1Cc1ccc(F)cc1)CCO2 [Example 154, 5-(4-{5-[(4-fluorophenyl)methyl]-6-methylpyrimidin-4-yl}-2,3,4,5-tetrahydro-1,4-benzoxazepin-7-yl)-4-methyl-1,3-thiazol-2-amine]
IC50: 50 to 250 nM
